# Experimental data: patent publication US20200101014A1, “Stable Theranostic and Therapeutic Nanoemulsions Using Triphilic Semifluorinated Amphiphiles” (Wisconsin Alumni Research Foundation, priority 2017, published 2020)
# Key:
# Zebrafish (Danio rerio) = experiment: In vivo developmental toxicity study, embryo-larval zebrafish model; set-up: species or system Zebrafish (Danio rerio) of the AB strain
# Method: In Vivo Developmental Toxicity Study
# Due to the novel nature of the M2F8H18 amphiphile, there is no preceding toxicity data. Though some predictions can be made from previous work in the Mecozzi lab, a thorough study of developmental effects related to M2F8H18 was performed using an embryo-larval zebrafish model. This animal model was selected because zebrafish eggs remain transparent from fertilization until the tissues become dense as a mature adult. Several developmental endpoints can be simultaneously monitored providing valuable developmental toxicity data for new chemicals. Following short-term exposure, survival, and hatching, non-lethal malformations were monitored including curved body axis and pericardia edemas. Mortality rate was also monitored.
# Zebrafish (Danio rerio) of the AB strain were obtained from our collaborator, Dr. Michael Taylor at the University of Madison-Wisconsin School of Pharmacy, where the fish were cultured until sexual maturation for crossing. The fish were maintained in a light/dark cycle of 14:10 hat 28.5° C. in egg water (0.03% Instant Ocean, Blacksburg, Va., USA). Zebrafish were fed with live brine shrimps (Artemia nauplii) twice a day. Embryos were obtained from healthy adult fish with a ratio of 1:2 for female to male. Six breeding groups were placed in separate spawning aquariums, equipped with a mesh bottom to prevent the eggs from being cannibalized. Crossing was induced in the morning when the light was turned on. One hour later, eggs free of macroscopically discernable symptoms of infection and disease were collected, rinsed with egg water and transferred into Petri dishes until chemical exposure.
# The embryo-larvae toxicity assay was carried out according to previous studies in the Taylor and Mecozzi laboratories. Briefly, 8 fertilized eggs of 2 hpf (hours post-fertilization) stages were placed into each well of a 24-well plate and each filled with 600 μL egg water. Six concentrations (1 mM, 333 μM, 111 μM, 37 μM, 12.3 μM, and 4.1 μM) plus two controls were plated. The plate was covered and incubated at 28.5° C. in a light/dark cycle of 14:10 throughout the 96 hpf exposure period. The observations of zebrafish development were made directly in the well using a stereomicroscope (Nikon SMZ18) every 24 hr. Endpoints including mortality, spontaneous movement, hatching success, pericardial edema, and curved body axis, were selected to monitor the effects of M2F8H18. Embryos and larvae were considered dead when no heartbeat was observed. The number of hatched embryos and a cumulative mortality tally was recorded every 24 hr from 2 hpf. The number of larvae displaying pericardial edemas or curved body axes were also recorded every 24 hr from 2 hpf. […]
# [1] = test system: A549 non-small cell lung cancer cells; conditions: read-out: Reported IC50 for the A549 cell line; cited from earlier work
# [2] = cited from earlier work
structure (smiles),measurement,setting,value
"O=C(O)C(F)(F)C(F)(F)C(F)(F)C(F)(F)C(F)(F)C(F)(F)C(F)(F)F [PFOA, perfluorooctanoic acid]",Malformations,Zebrafish (Danio rerio); 333 μM,curved body axis and mild pericardia edemas
same,Mortality (fish),"Zebrafish (Danio rerio); 333 μM, 96 hpf",67%
same,Mortality,"Zebrafish (Danio rerio); 1 mM, 96 hpf",mortality in all fish
same,Malformations,Zebrafish (Danio rerio); lower PFOA concentrations (111 μM and lower),No other malformations were noted
"CC(=O)O[C@H]1C(=O)[C@@]2(C)[C@H]([C@H](OC(=O)c3ccccc3)[C@]3(O)C[C@H](OC(=O)[C@H](O)[C@@H](NC(=O)c4ccccc4)c4ccccc4)C(C)=C1C3(C)C)[C@]1(OC(C)=O)CO[C@@H]1C[C@@H]2O [Paclitaxel, paclitaxel]",IC50,[1],4 nM
FC(F)(F)C(F)(F)C(F)(F)C(F)(F)C(F)(F)C(F)(F)C(F)(F)C(F)(F)Br [perfluorooctyl bromide],Solubility (in water),[2],5 nM
